Test results reported in US9273151B2, “Proteinaceous-substance-binding low-molecular-weight compound” (Kaneka Corporation, priority 2011, dated 2016).

Tested on: IgG-Fc (Fc fragment of IgG preparation derived from human plasma)
Assay: Biacore 3000 surface plasmon resonance analysis of the affinity of the low-molecular-weight compound for IgG-Fc
Conditions: IgG-Fc immobilized on sensor chip CM5; compound 25 μM to 100 μM in running buffer pH 7.4, 5% DMSO; 25° C.; 1:1 binding model fit
Experimental: An Fc fragment was prepared by fragmenting an IgG preparation derived from human plasma as a raw material into a Fab fragment and an Fc fragment using papain and separating the Fc fragment only to be purified. Gammagard, which is an IgG preparation derived from human plasma and which was manufactured by Baxter, was dissolved into a buffer solution for papain digestion which contained 0.1 M AcOH—AcONa, 2 mM EDTA and 1 mM cysteine and of which pH was 5.5, and Papain Agarose from papaya latex (papain-immobilized agarose, manufactured by SIGMA) was added to the solution. The mixture was mixed using a rotator and incubated at 37° C. for about 8 hours. The reaction mixture, which contained both of a Fab fragment and an Fc fragment, was separated from the papain-immobilized agarose. The Fc fragment was separated to be purified from the reaction mixture by affinity chromatography using Protein A column (MabSelect, manufactured by GE Healthcare Company). Hereinafter, the Fc fragment is referred to as “IgG-Fc”. Specifically, the reaction mixture, which contained both of a Fab fragment and an Fc fragment, was diluted with a phosphate buffer (20 mM NaH2PO4—Na2HPO4, 150 mM NaCl, pH 7.4) so that the pH became about 7.4. The diluted mixture was added to a Protein A column which was equilibrated using a phosphate buffer, and the column was washed with a phosphate buffer. Then, an IgG-Fc solution was obtained by using an eluent buffer B (100 mM citric acid, pH 3.0) to elute the IgG-Fc. The above-described protein purification by chromatography was carried out using AKTAprime plus system manufactured by GE Healthcare Company.
The analysis of the affinity between the low-molecular-weight compound and IgG-Fc was carried out using Biacore 3000, which was manufactured by GE Healthcare Company and in which surface plasmon resonance was utilized, under the following protocol. All of the sensor chip and reagents used in the following protocol were manufactured by GE Healthcare Company. The low-molecular-weight compounds (2) to (17) of which binding properties were evaluated were obtained from Namiki Shoji Co., Ltd.
The IgG-Fc obtained in the Example 1 was diluted 50-fold with a buffer for immobilization (10 mM CH3COOH—CH3COONa, pH 4.5), and the IgG-Fc was immobilized on a sensor chip CM5 in accordance with the protocol provided with Biacore 3000. The immobilization of the IgG-Fc on the sensor chip CM5 was carried out by amine coupling method using N-hydroxysuccinimide (NHS) and N-ethyl-N′-(3-dimethylaminopropyl)carbodiimide hydrochroride (EDC), and ethanolamine was used for blocking. In addition, a reference cell was prepared as a negative control by activating other flow cell on a chip by EDC/NHS and then immobilizing ethanolamine.
A ligand of any one of the low-molecular-weight compounds (2) to (17) was flowed on the above sensor chip to detect an interaction. Specifically, each of the low-molecular-weight compound (2) to (17) to be measured was diluted with a running buffer (20 mM NaH2PO4—Na2HPO4, 150 mM NaCl, 0.005% P-20, 5% DMSO, pH 7.4) to prepared three or four kinds of diluted solutions of which concentrations were different each other within the range of 25 μM to 100 μM with respect to each compound. The prepared solutions of the each low-molecular-weight compound were added to the sensor chip at a flow rate of 30 μL/min for 120 seconds. Binding reaction curves were orderly observed at the time of addition (binding phase, for 120 seconds) and after the addition (dissociation phase, for 120 second) at the measurement temperature of 25° C. After the each observation, 40 mM NaOH was added for 15 seconds to regenerate the sensor chip. A binding reaction curve of a sample containing DMSO was corrected using a Biacore correction tool manufactured by GE Healthcare Company with respect to the obtained binding curves (see FIGS. 1 to 4). […]

Structure (SMILES)	KA × 10^4 (M^−1), coupling/binding constant KA=Kon/Koff
O=C(CSc1ncnc2c1cnn2-c1ccccc1)c1ccc(O)c(O)c1 [(3)]	5.1 × 10^4 M^−1
O=C(CSc1nnc2sc3ccccc3n12)c1ccc(O)c(O)c1 [(4)]	5.1 × 10^4 M^−1
O=C(CSc1nnc(SCc2cccc3ccccc23)s1)c1ccc(O)c(O)c1 [(5)]	4.6 × 10^4 M^−1
CC(C)(c1ccc(O)cc1)c1cccc(C(C)(C)c2ccc(O)cc2)c1 [(6)]	2.9 × 10^4 M^−1
CN(c1ccc(O)cc1)c1ncc([N+](=O)[O-])c(N(C)c2ccc(O)cc2)n1 [(7)]	0.96 × 10^4 M^−1
Nc1cccc(Oc2cccc(Oc3cccc(N)c3)c2)c1 [(8)]	0.95 × 10^4 M^−1
O=C1N/C(=C\c2ccc(O)c(Br)c2)C(=O)N1Cc1ccc(Cl)cc1 [(9)]	0.48 × 10^4 M^−1
Oc1ccc(-c2csc(COc3ccccc3)n2)cc1O [(10)]	0.4 × 10^4 M^−1
O=C1Sc2c(S(=O)(=O)Nc3ccc(O)cc3)cc(S(=O)(=O)Nc3ccc(O)cc3)c3cccc1c23 [(11)]	0.37 × 10^4 M^−1
Nc1ccc(Oc2nc(Oc3ccc(N)cc3)c(F)c(Oc3ccc(N)cc3)c2F)cc1 [(12)]	0.2 × 10^4 M^−1
CC(Sc1nnnn1-c1ccc(O)cc1)C(=O)c1ccc(F)c(F)c1 (stereo not shown) [(13)]	0.17 × 10^4 M^−1
CN(c1ccc(O)cc1)c1nc(S(=O)(=O)c2ccccc2)c(Cl)s1 [(14)]	0.16 × 10^4 M^−1
Cc1ccc(C(=O)C(C)Sc2nnnn2-c2ccc(O)cc2)cc1 (stereo not shown) [(15)]	0.12 × 10^4 M^−1
Cc1ccc(OCc2nc(CSc3nc(N)cc(N)n3)cs2)cc1 [(16)]	0.06 × 10^4 M^−1
Cc1cc(C(=O)CSc2nc(N)cc(N)n2)c(C)n1Cc1ccc2c(c1)OCO2 [(17)]	0.05 × 10^4 M^−1
O=c1cc(CSc2ncnc3c2cnn3-c2ccccc2)c2cc(O)c(O)cc2o1 [compound (2)]	13 × 10^4 M^−1
